Measurements taken from patent US20240002434A1, “METHODS OF INACTIVATING VIRAL CONTAMINANTS” (ICHNOS SCIENCES SA, priority 2017, published 2024).

Test system: MLV
Experiment: VRV study on Arginine treatment of PA eluate
Type: cell-based, Murine Leukemia Virus
Protocol: Based on the stability and activity studies reported in Example 1, the most promising viral inactivation methods were further tested for their ability to inactivate viruses. The effectiveness of the viral inactivation was evaluated by doing a spiking study at Bioreliance. Test samples were taken before and after each treatment and analyzed for viral titre. First, VRV study on Arginine treatment was carried out.
Only one virus, MLV, which is a typical model virus used for biological products derived from CHO cell lines such as monoclonal antibody, was used for this study. A total of 7 runs were performed. PA eluate from development runs was used as starting material. Different stock buffers of Arginine at the different pH (pH 4.0, pH 4.75, pH 4.79 and pH 5.5) were used to reach the target pH and concentration. The samples were neutralized using 250 mM Histidine pH 12.0 buffer around pH 6.0 to stop the reaction.
Log reduction values was calculated with respect to the neutralized load sample, a 5 plate large volume plating as well as a standard titration was performed on the t=60 min sample. The neutralized load hold sample was held at 16.0° C. to 20.0° C. for 60 minutes (runs 2, 4 and 6) or 120 minutes (runs 1, 3, 5 and 7).

Question: What does the source list for N=C(N)NCCC[C@H](N)C(=O)O [Arginine]?
Answer: log10 reduction factor (Run 2, Arginine concentration (mM) 0.4, pH 4, 60 min): 4.16 +/− 0.32 log10; log10 reduction factor (Run 3, Arginine concentration (mM) 0.8, pH 4, 120 min): 4.10 +/− 0.35 log10; log10 reduction factor (Run 4, Arginine concentration (mM) 0.8, pH 4.75, 60 min): 2.82 +/− 0.4 log10; log10 reduction factor (Run 5, Arginine concentration (mM) 0.38, pH 4.79, 120 min): no reduction; log10 reduction factor (Run 6, Arginine concentration (mM) 0, pH 5.5, 60, 120 min): 0.35 +/− 0.4 log10; log10 reduction factor (Run 7, Arginine concentration (mM) 0.8, pH 5.5, 120 min): no reduction
